Laboratory results reported in patent publication US20070274947A1, “Antisense Oligonucleotides Directed to Ribonucleotide Reductase R1 and Uses Thereof in the Treatment of Cancer” (priority 2003, published 2007).
Entries after “also recorded” stand apart in the source; their conditions may differ.

Legend:
[1] = system: Caki-1 human kidney cancer cells; assay: Caki-1 renal tumor growth in SCID/beige mice; format: in vivo; conditions: SCID/beige mice (NK, T and B cell deficient); 10 mg/kg/2 days i.v.; 32 days
Protocol: To address whether SEQ ID NO:1 anti-tumor activity is NK mediated, tumor xenograft growth was assessed in SCID/beige mice that are NK, T and B cell deficient. Caki-1 human kidney cancer cells (5×10^6 cells in 100 μl of PBS) were subcutaneously injected into the right flank of 6-7 weeks old female SCID/beige mice. After the size of tumor reached an approximate volume of 100 mm^3, 7 days post tumor cell injection, SEQ ID NO:1 and SEQ ID NO:1-SCR were administered (10 mg/kg/2 days, i.v.). Control animals received saline alone for the same period. Caliper measurements at 1 week intervals were used to calculate tumor volumes. Each point in FIG. 3 (top) represents mean tumor volume calculated from 10 animals per experimental group. After 32 days the mice were sacrificed and the tumors weighed. Each bar in FIG. 3 (bottom) represents the mean tumor weight and standard error calculated for each treatment group.

R1 mRNA = assay: Northern blot of R1 mRNA in MDA-MB-231 cells; format: cell-based, human; conditions: 0.2 μM, four hours with Lipofectin, 16 hours recovery
Protocol: Total RNA was isolated using TRIzol reagent (GIBCO BRL) after cells were treated with 0.2 μM SEQ ID NO:1 for four hours in the presence of cationic lipid (Lipofectin reagent, GIBCO BRL), washed with PBS, and incubated for 16 hours to recover in normal medium containing 10% FBS. Northern blot analysis was performed as previously described (Hurta and Wright, 1995). RNA was subjected to electrophoresis through 1% formaldehyde agarose gels followed by transfer to nylon membranes. Blots were hybridized in the presence of a R1 fragment (McClarty et al, 1987). Glyceraldehyde-3-phosphate dehydrogenase (GAPDH) mRNA levels were simultaneously probed for RNA loading controls.

[2] = Phase I study, 14-day continuous intravenous infusion in patients with solid tumors or lymphoma
Protocol: To determine the maximal tolerated dose (MTD) and recommended Phase II dose of SEQ ID NO:1 in patients with solid tumors or lymphoma when administered as a 14-day continuous intravenous infusion.
Safety: Adverse events and laboratory evaluation. Dosage Selection and Dosing Interval:
The starting dose in the Phase I dose-escalation study is 6.0 mg/m^2/day (approximately 0.16 mg/kg/day) infused over 14 days.
DLT Definition: • Grade 4 neutropenia associated with fever or lasting 3 days or longer. • Platelet count <25,000 μl. • Any ≧ grade 3 coagulation abnormality (defined by PT and aPTT values). • Clinical hemorrhage ≧ grade 1. • Nausea/vomiting ≧ grade 3 despite maximal antiemetic therapy; diarrhea ≧ grade 3 despite maximal anti-diarrheal therapy. • Any other non-hematological toxicity ≧grade 3 with the exception of alopecia Interim Evaluation Status:
Preliminary evaluability assessment was performed. In the Phase I open label single arm study, SEQ ID NO:1 was administered in daily doses escalating from 6.0 mg/m^2 to 210.9 mg/m^2 in patients with solid tumors or lymphoma. SEQ ID NO:1 was administered as monotherapy by ambulatory intravenous infusion for 14 days in each 21 day cycle. […] Expected toxicities for agents in the same class as SEQ ID NO:1, phosphorothioate oligonucleotides, include fatigue, prolonged coagulation (PT/aPITI) times and elevated transaminase ALT/AST) levels.

[3] = system: C8161 human melanoma cells; assay: Experimental metastasis of C8161 cells treated ex vivo (lung nodules, CD-1 athymic nude mice); format: in vivo; conditions: cells treated 4 hr with 0.2 μM plus Lipofectin before tail vein injection; 4 weeks; vs lipofectin alone
Protocol: A. Experimental metastasis of C8161 human melanoma cells treated with SEQ ID NO:1 was estimated as follows. Aliquots of C8161 cell suspension were seeded into 100 mm tissue culture dishes at a density of 2×10^6 and incubated overnight at 37° C. in α-MEM medium supplemented with 10% FBS. Following a wash with 10 ml of PBS, cells were treated for 4 hr with 0.2 μM of SEQ ID NO:1 in the presence of a cationic lipid (Lipofectin reagent, final concentration, 10 μg/ml, Gibco BRL) or with lipofectin alone (CONTROL) as a control. SEQ ID NO:1 was removed by washing the cells once with PBS. Cells were then collected by trypsinization and centrifugation. Approximately 1×10^5 cells suspended in 0.2 ml of PBS were injected into the tail veins of 6-8 week-old CD-1 athymic female nude mice. Estimates of the number of lung tumors were made 4 weeks later by counting metastatic foci formed on the excised lung surface, see FIG. 12A. Bars represent mean number of tumor nodules in lungs obtained from 7-9 animals per experimental group.

[4] = system: MDA-CDDP-S4 human in vivo-selected Cisplatin-resistant breast adenocarcinoma cells; assay: Cisplatin-resistant breast adenocarcinoma MDA-CDDP-S4 growth in SCID mice
Protocol: MDA-CDDP-S4 human in vivo-selected Cisplatin-resistant breast adenocarcinoma cells MDA231/CDDPs4) (4×10^6 cells in 100 μl of PBS) were injected into the fat pad (inside of right leg) of 6-7 weeks old female SCID mice. After the size of tumor reached an approximate volume of 100 mm^3, 7-9 days post tumor cell injection, SEQ ID NO:1 was administered by bolus infusion into the tail vein every other day at 10 mg/kg. Control animals received saline alone for the same period. Antitumor effect of SEQ ID NO:1 was further compared to that of Cisplatin or Taxol alone (FIG. 14A) and in combination as indicated in the FIGS. 14B, 14C and 14D. Cisplatin was administered intravenously once a week for three weeks at a dose of 4 mg/kg. Taxol was administered intravenously once a week for three weeks at a dose of 10 mg/kg. Antitumor activities were estimated by the inhibition of tumor volume, which was measured with caliper and each point represents mean tumor volume calculated from 10 animals per experimental group (FIG. 14C). At the end of the study animals were sacrificed, tumor weights taken and mean tumor weights are indicated. […] As expected, treatment with Cisplatin during the same period was ineffective against Cisplatin-resistant tumor.

[5] = cynomolgus monkey, in vivo
[6] = cynomolgus monkey, in vivo; remark: listed apart in the source
[7] = Repeat dose 21-day toxicity study in monkeys (Part 2); conditions: monkey; 21-day infusion, 50 mg/kg/day

With “5′-CTCTAGCGTCTTAAAGCCGA-3′ (CTCTAGCGTCTTAAAGCCGA; chemistry not given here) [SEQ ID NO:1]” the “tumor volume and tumor weight” value [1] was “highly effective”, the “R1 mRNA level” value (R1 mRNA) was “specifically decreases R1 mRNA; also recorded: significant decrease; also recorded: decreased R1 mRNA levels” and the “drug related serious adverse events” value ([2]; human, in vivo) was “no drug related serious adverse events”. For the same substance, the tolerability ([2]; human, in vivo) was “well tolerated”, the “additional sporadic toxicities considered possibly related to study therapy” value ([2]; interim evaluation) was “Grade 3 hypokalemia, Grade 3 increased blood alkaline phosphatase and Grade 3 diarrhea” and the “patients with Grade 3 fatigue” value ([2]; interim evaluation) was “Two patients”. For the same substance, the “patients with Grade 3 increased ALT” value ([2]; interim evaluation) was “three patients”, the “patients with Grade 3 increased AST” value ([2]; interim evaluation) was “one patient” and the “patients with prolonged aPTT” value ([2]; interim evaluation) was “one patient”. For the same substance, the “maximum tolerated dose (MTD)” value ([2]; patients, no MTD seen up to and including this dose, interim) was no less than 210.9 mg/m^2/day, the “number of lung tumor nodules” value [3] was “significantly reduced the formation of lung colonies” and the “tumor weight / tumor growth” value ([4]; SCID mice, fat pad, SEQ ID NO:1 10 mg/kg every other day, Cisplatin 4 mg/kg, Taxol 10 mg/kg i.v. weekly for three weeks) was “significant reduction of tumor weight”. The “delay in tumor growth compared with Taxol” value ([4]; Taxol 10 mg/kg weekly as positive control) was “superior to the inhibitory effects observed with Taxol”, the “Cmax and AUC estimates versus dose” value [5] was “proportional with the administered dose” and the “mean Cl, high dose group compared to low dose group” value [5] was “slightly increased mean Cl value”. The “mean elimination t1/2, high dose group compared to low dose group” value [5] was “significantly larger mean elimination t1/2”, the “sex differences in pharmacokinetics” value [5] was “no clear observed sex differences” and the “elimination t1/2” value [6] was 2.2 to 2.5 h. For the same substance, the “plasma Cl” value [6] was 45.7 to 116.7 mL/kg/h, the “time to Css” value [6] was “consistently achieved at the first or second blood collection timepoint” and the mortality [7] was “one high dose animal was sacrificed on Day 19 for ethical reasons”.
